Data set [1] concerns the target CDK-2 (Homo sapiens, UniProt P24941). The data set can be described thus: CDK-2 enzyme activity inhibition (33P-ATP filter plate kinase assay). Format: biochemical. The text has this: [General Procedure for Measurement of CDK-2 Enzyme Activity Inhibition]
Data set [2] deals with MAPKAP-K2 (Homo sapiens, UniProt P49137). Description: MAPKAP-K2 enzyme activity inhibition (33P-ATP filter plate kinase assay). Also: key: +: active; ++: more active; +++: very active. As to conditions: MAPKAP-K2 inhibitory activity; assays conducted at typically 1-100 μM. It is filed as biochemical.
MAPKAP-K2, sequence (P49137 whole entry): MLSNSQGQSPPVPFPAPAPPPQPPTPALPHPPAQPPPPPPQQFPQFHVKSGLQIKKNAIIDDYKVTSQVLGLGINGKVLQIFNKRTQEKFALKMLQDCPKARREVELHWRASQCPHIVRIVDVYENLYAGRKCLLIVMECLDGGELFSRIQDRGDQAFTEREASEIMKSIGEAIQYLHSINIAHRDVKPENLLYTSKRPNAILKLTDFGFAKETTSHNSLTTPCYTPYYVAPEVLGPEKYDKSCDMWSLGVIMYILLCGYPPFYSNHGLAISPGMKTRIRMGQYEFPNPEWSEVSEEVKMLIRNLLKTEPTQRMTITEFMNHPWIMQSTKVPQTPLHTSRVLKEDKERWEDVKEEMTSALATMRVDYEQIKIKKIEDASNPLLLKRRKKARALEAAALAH
For data set [3], the target named is CDK-1 (Homo sapiens, UniProt P06493). Description: CDK-1 enzyme activity inhibition (33P-ATP filter plate kinase assay).
CDK-1, sequence (P06493 whole entry, species assumed): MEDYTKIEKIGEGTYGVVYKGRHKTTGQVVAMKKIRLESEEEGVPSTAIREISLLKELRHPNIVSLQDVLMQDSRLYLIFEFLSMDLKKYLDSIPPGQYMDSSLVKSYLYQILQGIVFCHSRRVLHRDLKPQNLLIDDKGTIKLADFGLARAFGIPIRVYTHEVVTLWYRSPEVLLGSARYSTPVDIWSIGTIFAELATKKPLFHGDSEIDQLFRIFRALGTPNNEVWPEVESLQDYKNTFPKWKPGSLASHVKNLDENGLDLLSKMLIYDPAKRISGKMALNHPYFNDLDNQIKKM
CDK-1, sequence (P14635 whole entry partner, species assumed): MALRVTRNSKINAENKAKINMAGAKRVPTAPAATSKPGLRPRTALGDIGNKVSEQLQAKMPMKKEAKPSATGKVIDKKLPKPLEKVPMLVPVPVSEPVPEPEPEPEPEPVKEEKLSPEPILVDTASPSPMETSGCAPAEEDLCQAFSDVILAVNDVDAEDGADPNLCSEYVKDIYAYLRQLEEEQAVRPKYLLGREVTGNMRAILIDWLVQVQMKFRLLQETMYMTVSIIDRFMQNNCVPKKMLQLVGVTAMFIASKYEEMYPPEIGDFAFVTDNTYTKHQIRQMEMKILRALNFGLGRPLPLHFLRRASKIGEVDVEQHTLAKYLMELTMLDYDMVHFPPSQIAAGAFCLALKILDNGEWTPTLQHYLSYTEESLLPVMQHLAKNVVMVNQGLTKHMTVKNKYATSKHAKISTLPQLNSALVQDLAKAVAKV
Protocol: [General Procedure for Measurement of CDK-1 Enzyme Activity Inhibition]
Compounds were dissolved in DMSO at a concentration of 10 mM and stored in aliquots at −20° C. Compounds in DMSO from these stock aliquots were diluted in DMSO to produce the required range of 30× stock solutions. These stock solutions were then subjected to 1:3 dilutions in order to prepare the required range of 10× stock solutions and 5 μL of each solution was used per 50 μL reaction.
The kinase reaction was conducted in a round-bottomed polypropylene 96-well plate. CDK-1 was diluted to 0.5 U/μL in diluent buffer (50 mM Tris/HCl. pH7.5, 0.1 mM EGTA, 0.1% (v/v) β-mercaptoethanol, 1 mg/mL BSA). 5 μL compound or 30% DMSO was added to each well followed by 25 μL substrate cocktail (final concentration: 10 μM ATP, 50 μM peptide ([sequence]), 0.5 μCi ^33P-γ-ATP in 50 mM Tris-HCl (pH 7.5), 1 mM EGTA, 2 mM DTT, 10 mM MgCl2, 0.01% Brij-35). The reaction was initiated with the addition of 20 μL enzyme solution per well or 20 μL of diluent buffer without enzyme. The plate was shaken for 10 seconds and then left at room temperature for 15 minutes. The reaction was terminated with 50 μL 150 mM phosphoric acid. 90 μL of the reaction mixture was then transferred into a 96-well P81 filter plate (Whatmann) and incubated at room temperature for 5 minutes. The filter plate was then washed 4 times with 200 μL 75 mM phosphoric acid per well on a plate vacuum manifold (Millipore) and dried in an oven for 2-3 hours. Packard MicroScint ‘0’ (30 μL) was then added to each well, the plate was miffed for 30 minutes and subjected to liquid scintillation counting on a Packard TopCount.
Setting [4] is: read-out: CDK-2 inhibition IC50.

The structures appear in SMILES notation. Read-outs that look alike come from different tables or passages of the source.

Usually IC50 stands for the concentration needed to halve the response being measured. Turning to `N[C@H]1CC[C@H](Nc2cc(Nc3ccc(F)c(Cl)c3)n3ncc(Br)c3n2)CC1` [Compound 2], the IC50 in data set [1] and in data set [3] was less than 100 µM throughout. Further, the “activity (efficacy against MAPKAP-K2)” value in data set [2] is listed as “++”.

Usually melting point stands for the temperature of the solid-liquid transition. As for `CCOC(=O)c1cnn2c(Nc3ccc(F)c(Cl)c3)cc(N[C@H]3CC[C@H](N)CC3)nc12` [Compound 9], the melting point lay within 221 to 223 °C. The compound further showed an IC50 in data set [3] of less than 100 µM.

In the case of `Cc1c(N[C@H]2CC[C@H](N)CC2)nc2ccnn2c1Nc1ccc(F)c(Cl)c1` [Compound 10], the IC50 in data set [1] and in data set [3] was less than 100 µM in each case. In addition, the “activity (efficacy against MAPKAP-K2)” value in data set [2] is “+++”.

Take `CCCc1c(N[C@H]2CC[C@H](N)CC2)nc2ccnn2c1Nc1ccc(F)c(Cl)c1` [Compound 11]: the half-inhibitory concentration (IC50) in data set [1] and in data set [3] was less than 100 µM throughout. For the same compound, the “activity (efficacy against MAPKAP-K2)” value in data set [2] is listed as “+++”.

In the case of `NC1CCC(Nc2nc3ccnn3c(Nc3ccc(F)c(Cl)c3)c2-c2ccccc2)CC1` (stereo not shown) [Compound 12], the IC50 in data set [1] and in data set [3] was less than 100 µM each time. The “activity (efficacy against MAPKAP-K2)” value in data set [2] is reported as “+++”.

Take `Cc1c(N[C@H]2CC[C@H](N)CC2)nc2ccnn2c1Nc1ccccc1Cl` [Compound 15]: the IC50 in data set [1] and in data set [3] was less than 100 µM in each case. Moreover, in data set [2], the “activity (efficacy against MAPKAP-K2)” value is “+++”.

In the case of `CCc1c(N[C@H]2CC[C@H](N)CC2)nc2ccnn2c1Nc1ccccc1Cl` [Compound 16], the IC50 in data set [1] and in data set [3] was less than 100 µM throughout. For the same compound, the “activity (efficacy against MAPKAP-K2)” value in data set [2] is on record as “+++”.

`C=CCc1c(N[C@H]2CC[C@H](N)CC2)nc2ccnn2c1Nc1ccccc1Cl` [Compound 17] yielded a melting point of 153 to 155 °C. Besides, in data set [2], the “activity (efficacy against MAPKAP-K2)” value is given as “+++”. Further, the IC50 in data set [3] is less than 100 µM.

`C=CCc1c(N[C@H]2CC[C@H](N)CC2)nc2ccnn2c1Nc1ccc(F)c(Cl)c1` [Compound 19] returned a melting point of 176 to 178 °C. The “activity (efficacy against MAPKAP-K2)” value in data set [2] is “+++”. Besides, in data set [3], the IC50 was less than 100 µM.

Regarding `CCc1c(N[C@H]2CC[C@H](N)CC2)nc2ccnn2c1Nc1ccc(F)c(Cl)c1` [Compound 23], the IC50 in data set [1] and in data set [3] was less than 100 µM throughout. In addition, in data set [2], the “activity (efficacy against MAPKAP-K2)” value is on record as “+++”.

Consider `N[C@H]1CC[C@H](Nc2nc3ccnn3c(Nc3ccc(F)c(Cl)c3)c2Cc2ccccc2)CC1` [Compound 24], for which, in data set [2], the “activity (efficacy against MAPKAP-K2)” value is listed as “+++”. The compound also showed an IC50 in data set [3] of less than 100 µM.

With `CCc1c(N[C@H]2CC[C@H](N)CC2)nc2ccnn2c1Nc1ccc(Cl)cc1` [Compound 26], in data set [2], the “activity (efficacy against MAPKAP-K2)” value is recorded as “+++”. Moreover, the IC50 in data set [3] is less than 100 µM.

As to `CCc1c(N[C@H]2CC[C@H](N)CC2)nc2ccnn2c1Nc1ccc(OC)cc1` [Compound 28], the IC50 in data set [1] (setting [4]) and in data set [3] was less than 100 µM throughout. In data set [2], the “activity (efficacy against MAPKAP-K2)” value is “+++”.

With `CCc1c(N[C@H]2CC[C@H](N)CC2)nc2ccnn2c1Nc1ccccc1C` [Compound 29], the melting point lay within 176 to 178 °C. Moreover, the “activity (efficacy against MAPKAP-K2)” value in data set [2] is “+++”. In data set [3], this compound registered an IC50 of less than 100 µM.

`CCc1c(N[C@H]2CC[C@H](N)CC2)nc2ccnn2c1Nc1ccc(C)c(C)c1` [Compound 30]: in data set [2], the “activity (efficacy against MAPKAP-K2)” value is “+++”. In addition, in data set [3], the half-maximal inhibitory concentration (IC50) was less than 100 µM.

Take `CCOc1ccc(Nc2c(CC)c(N[C@H]3CC[C@H](N)CC3)nc3ccnn23)cc1` [Compound 31]: the melting point lay within 131 to 133 °C. For the same compound, in data set [1] (setting [4]), the IC50 is less than 100 µM. Also, the “activity (efficacy against MAPKAP-K2)” value in data set [2] is recorded as “+++”. Also, in data set [3], the IC50 was less than 100 µM.

`CCOc1ccc(Nc2c(C)c(N[C@H]3CC[C@H](N)CC3)nc3ccnn23)cc1` [Compound 32]: the IC50 in data set [1] (setting [4]) and in data set [3] was less than 100 µM in each case. Besides, in data set [2], the “activity (efficacy against MAPKAP-K2)” value was “+++”.

In turn, `CCc1c(N[C@H]2CC[C@H](N)CC2)nc2ccnn2c1Nc1ccc(Oc2ccccc2)cc1` [Compound 33] yielded a melting point of 147 to 149 °C. The “activity (efficacy against MAPKAP-K2)” value in data set [2] was “+++”. Also, the IC50 in data set [3] was less than 100 µM.

`CCc1c(N[C@H]2CC[C@H](N)CC2)nc2ccnn2c1Nc1ccc(OCc2ccccc2)cc1` [Compound 35] registered a melting point of 120 to 122 °C. In addition, the IC50 in data set [1] (setting [4]) is less than 100 µM. In addition, in data set [2], the “activity (efficacy against MAPKAP-K2)” value is “+++”. This compound displayed an IC50 in data set [3] of less than 100 µM.

For the compound `CCc1c(N[C@H]2CC[C@H](N)CC2)nc2ccnn2c1Nc1ccc(SC)cc1` [Compound 36], the melting point was in the range of 190 to 192 °C. Moreover, the “activity (efficacy against MAPKAP-K2)” value in data set [2] was “+++”. The IC50 in data set [3] is less than 100 µM.

`CCOc1cccc(Nc2c(CC)c(N[C@H]3CC[C@H](N)CC3)nc3ccnn23)c1` [Compound 61] showed a melting point of 150 to 152 °C. Moreover, the half-inhibitory concentration (IC50) in data set [1] (setting [4]) is less than 100 µM. Moreover, in data set [2], the “activity (efficacy against MAPKAP-K2)” value was “+++”.

As for `CSc1ccc(Nc2c(C)c(N[C@H]3CC[C@H](N)CC3)nc3ccnn23)cc1` [Compound 65], the melting point lay within 185 to 187 °C. In addition, the IC50 in data set [1] (setting [4]) is less than 100 µM. In addition, the “activity (efficacy against MAPKAP-K2)” value in data set [2] is “+++”.

`Cc1c(N[C@H]2CC[C@H](N)CC2)nc2ccnn2c1Nc1cccc(Br)c1` [Compound 77] had a melting point of 215 to 216 °C. For the same compound, the half-inhibitory concentration (IC50) in data set [1] (setting [4]) is less than 100 µM. For the same compound, the “activity (efficacy against MAPKAP-K2)” value in data set [2] is “+++”.

`Cc1c(N[C@H]2CC[C@H](N)CC2)nc2ccnn2c1Nc1cccc(Cl)c1` [Compound 85]: the melting point was in the range of 209 to 212 °C. Moreover, the IC50 in data set [1] (setting [4]) was less than 100 µM. The “activity (efficacy against MAPKAP-K2)” value in data set [2] was “+++”.

In turn, `Cc1c(N[C@H]2CC[C@H](N)CC2)nc2ccnn2c1Nc1cccc(O)c1` [Compound 88] showed a melting point of 145 to 150 °C. The IC50 in data set [1] (setting [4]) is less than 100 µM. The “activity (efficacy against MAPKAP-K2)” value in data set [2] is given as “+++”.

Take `Cc1c(N[C@H]2CC[C@H](N)CC2)nc2ccnn2c1Nc1cccc(CO)c1` [Compound 97]: the melting point lay in the range of 97 to 100 °C. Besides, the concentration for half-maximal inhibition (IC50) in data set [1] (setting [4]) was less than 100 µM. The “activity (efficacy against MAPKAP-K2)” value in data set [2] is listed as “+++”.

On to `Cc1c(N[C@H]2CC[C@H](N)CC2)nc2ccnn2c1Nc1ccccc1` [Compound 102], for which the melting point fell in the range of 96 to 99 °C. Moreover, the IC50 in data set [1] (setting [4]) was less than 100 µM. Besides, in data set [2], the “activity (efficacy against MAPKAP-K2)” value is given as “+++”.

The compound `Cc1c(N[C@H]2CC[C@H](N)CC2)nc2ccnn2c1Nc1ccc2ncsc2c1` [Compound 112] had a melting point of 100 to 108 °C. The IC50 in data set [1] (setting [4]) was less than 100 µM. The “activity (efficacy against MAPKAP-K2)” value in data set [2] is “+++”.

Take `CCc1c(N[C@H]2CC[C@H](N)CC2)nc2ccnn2c1Nc1ccc(OC)c(C(F)(F)F)c1` [Compound 113]: the melting point is 181 to 183 °C. For the same compound, the IC50 in data set [1] (setting [4]) was less than 100 µM. Further, in data set [2], the “activity (efficacy against MAPKAP-K2)” value is reported as “++”.

Consider `CC(C)c1c(N[C@H]2CC[C@H](N)CC2)nc2ccnn2c1Nc1ccc(F)c(Cl)c1` [Compound 115], for which the melting point is 165 to 168 °C. Besides, the IC50 in data set [1] (setting [4]) was less than 100 µM. For the same compound, the “activity (efficacy against MAPKAP-K2)” value in data set [2] is on record as “+++”.

The compound `Cc1c(N[C@H]2CC[C@H](N)CC2)nc2ccnn2c1Nc1ccc(-n2ccnc2)cc1` [Compound 118] came in with a melting point of 210 to 215 °C. Further, the IC50 in data set [1] (setting [4]) is less than 100 µM. Besides, in data set [2], the “activity (efficacy against MAPKAP-K2)” value is on record as “+++”.

`Cc1c(N[C@H]2CC[C@H](N)CC2)nc2ccnn2c1Nc1ccc2c(c1)OCCO2` [Compound 126] came in with a melting point of 68 to 72 °C. Moreover, the IC50 in data set [1] (setting [4]) is less than 100 µM. Further, in data set [2], the “activity (efficacy against MAPKAP-K2)” value is “+++”.

Compound `Cc1c(N[C@H]2CC[C@H](N)CC2)nc2ccnn2c1Nc1ccc(N2CCCCC2)cc1` [Compound 129] displayed a melting point of 58 to 66 °C. In data set [1] (setting [4]), the IC50 is less than 100 µM. Moreover, in data set [2], the “activity (efficacy against MAPKAP-K2)” value was “+++”.

`CCc1c(N[C@H]2CC[C@H](N)CC2)nc2ccnn2c1Nc1cccc(C(N)=O)c1` [Compound 151] registered a melting point of 206 to 210 °C. In addition, the IC50 in data set [1] (setting [4]) is less than 100 µM. Also, the “activity (efficacy against MAPKAP-K2)” value in data set [2] is given as “++”.

As to `Cc1nc2ccc(Nc3c(C)c(N[C@H]4CC[C@H](N)CC4)nc4ccnn34)cc2s1` [Compound 155], the melting point lay within 210 to 215 °C. Besides, the IC50 in data set [1] (setting [4]) is less than 100 µM. The “activity (efficacy against MAPKAP-K2)” value in data set [2] was “+++”.

In turn, `CCc1c(N[C@H]2CC[C@H](N)CC2)nc2ccnn2c1Nc1ccc(Br)cc1` [Compound 159] returned a melting point of 184 to 187 °C. Moreover, the half-inhibitory concentration (IC50) in data set [1] (setting [4]) was less than 100 µM. Further, the “activity (efficacy against MAPKAP-K2)” value in data set [2] is “+++”.

`CCc1c(N[C@H]2CC[C@H](N)CC2)nc2ccnn2c1Nc1ccc(I)cc1` [Compound 168] displayed a melting point of 104 to 106 °C. Moreover, the IC50 in data set [1] (setting [4]) is less than 100 µM. The “activity (efficacy against MAPKAP-K2)” value in data set [2] is listed as “++”.
